According to PubChem BioAssay (NCI):
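1) Cells in 96-well plates. 2) Compound, 48 h, 5 concentrations. 3) Linear interpolation between surrounding doses. 4) Unreached endpoint = highest concentration. TGI: concentration producing complete growth inhibition.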

Assays:
Assay in all cases: inhibition of tumour cell growth, NCI panel, 48 h
SK-MEL-28 melanoma = tested on: SK-MEL-28 melanoma
HOP-92 NSCLC = tested on: HOP-92 NSCLC
HCC-2998 colon = tested on: HCC-2998 colon
SK-OV-3 ovarian = tested on: SK-OV-3 ovarian
U251 CNS = tested on: U251 CNS
K-562 leukemia = tested on: K-562 leukemia
SN12C renal = tested on: SN12C renal
RPMI-8226 leukemia = tested on: RPMI-8226 leukemia
786-0 renal = tested on: 786-0 renal
CAKI-1 renal = tested on: CAKI-1 renal
MALME-3M melanoma = tested on: MALME-3M melanoma
SF-268 CNS = tested on: SF-268 CNS
UO-31 renal = tested on: UO-31 renal
SK-MEL-5 melanoma = tested on: SK-MEL-5 melanoma
KM12 colon = tested on: KM12 colon
SK-MEL-2 melanoma = tested on: SK-MEL-2 melanoma
OVCAR-4 ovarian = tested on: OVCAR-4 ovarian
RXF 393 renal = tested on: RXF 393 renal
IGROV1 ovarian = tested on: IGROV1 ovarian
LOX IMVI melanoma = tested on: LOX IMVI melanoma
MDA-N = tested on: MDA-N
EKVX NSCLC = tested on: EKVX NSCLC
OVCAR-3 ovarian = tested on: OVCAR-3 ovarian
BT-549 breast = tested on: BT-549 breast
MDA-MB-231 breast = tested on: MDA-MB-231 breast
OVCAR-5 ovarian = tested on: OVCAR-5 ovarian
NCI-H460 lung = tested on: NCI-H460 lung
SR leukemia = tested on: SR leukemia
PC-3 prostate = tested on: PC-3 prostate
A549 NSCLC = tested on: A549 NSCLC
NCI/ADR-RES ovarian = tested on: NCI/ADR-RES ovarian
HOP-62 NSCLC = tested on: HOP-62 NSCLC
NCI-H226 lung = tested on: NCI-H226 lung
HCT-15 colon = tested on: HCT-15 colon
NCI-H522 lung = tested on: NCI-H522 lung
MDA-MB-435 = tested on: MDA-MB-435
COLO 205 colon = tested on: COLO 205 colon
NCI-H23 lung = tested on: NCI-H23 lung
SW-620 colon = tested on: SW-620 colon
SF-295 CNS = tested on: SF-295 CNS
MCF7 breast = tested on: MCF7 breast
TK-10 renal = tested on: TK-10 renal
M14 melanoma = tested on: M14 melanoma
MOLT-4 leukemia = tested on: MOLT-4 leukemia
UACC-62 melanoma = tested on: UACC-62 melanoma
DU-145 prostate = tested on: DU-145 prostate
UACC-257 melanoma = tested on: UACC-257 melanoma
HS 578T breast = tested on: HS 578T breast
CCRF-CEM leukemia = tested on: CCRF-CEM leukemia
OVCAR-8 ovarian = tested on: OVCAR-8 ovarian
HCT-116 colon = tested on: HCT-116 colon
ACHN renal = tested on: ACHN renal
SNB-75 CNS = tested on: SNB-75 CNS
HT29 colon = tested on: HT29 colon
T-47D breast = tested on: T-47D breast
A498 renal = tested on: A498 renal
SF-539 CNS = tested on: SF-539 CNS
HL-60(TB) leukemia = tested on: HL-60(TB) leukemia
SNB-19 CNS = tested on: SNB-19 CNS

O=C(O)c1ccccc1C1CCCc2c1[nH]c1ccccc21 (stereo not drawn)
TGI (SK-MEL-28 melanoma): > 100 µM
TGI (HOP-92 NSCLC): > 100 µM
TGI (HCC-2998 colon): > 100 µM
TGI (SK-OV-3 ovarian): > 100 µM
TGI (U251 CNS): > 100 µM
TGI (K-562 leukemia): > 100 µM
TGI (SN12C renal): > 100 µM
TGI (RPMI-8226 leukemia): > 100 µM
TGI (786-0 renal): > 100 µM
TGI (CAKI-1 renal): > 100 µM
TGI (MALME-3M melanoma): > 100 µM
TGI (SF-268 CNS): > 100 µM
TGI (UO-31 renal): > 100 µM
TGI (SK-MEL-5 melanoma): > 100 µM
TGI (KM12 colon): > 100 µM
TGI (SK-MEL-2 melanoma): > 100 µM
TGI (OVCAR-4 ovarian): > 100 µM
TGI (RXF 393 renal): > 100 µM
TGI (IGROV1 ovarian): > 100 µM
TGI (LOX IMVI melanoma): > 100 µM
TGI (MDA-N): > 100 µM
TGI (EKVX NSCLC): > 100 µM
TGI (OVCAR-3 ovarian): > 100 µM
TGI (BT-549 breast): > 100 µM
TGI (MDA-MB-231 breast): > 100 µM
TGI (OVCAR-5 ovarian): > 100 µM
TGI (NCI-H460 lung): > 100 µM
TGI (SR leukemia): > 100 µM
TGI (PC-3 prostate): > 100 µM
TGI (A549 NSCLC): > 100 µM
TGI (NCI/ADR-RES ovarian): > 100 µM
TGI (HOP-62 NSCLC): > 100 µM
TGI (NCI-H226 lung): > 100 µM
TGI (HCT-15 colon): > 100 µM
TGI (NCI-H522 lung): > 100 µM
TGI (MDA-MB-435): > 100 µM
TGI (COLO 205 colon): > 100 µM
TGI (NCI-H23 lung): > 100 µM
TGI (SW-620 colon): > 100 µM
TGI (SF-295 CNS): > 100 µM
TGI (MCF7 breast): > 100 µM
TGI (TK-10 renal): > 100 µM
TGI (M14 melanoma): > 100 µM
TGI (MOLT-4 leukemia): > 100 µM
TGI (UACC-62 melanoma): > 100 µM
TGI (DU-145 prostate): > 100 µM
TGI (UACC-257 melanoma): > 100 µM
TGI (HS 578T breast): > 100 µM
TGI (CCRF-CEM leukemia): 76.2 µM
TGI (OVCAR-8 ovarian): > 100 µM
TGI (HCT-116 colon): > 100 µM
TGI (ACHN renal): > 100 µM
TGI (SNB-75 CNS): 59.3 µM
TGI (HT29 colon): > 100 µM
TGI (T-47D breast): 71 µM
TGI (A498 renal): 85.9 µM
TGI (SF-539 CNS): > 100 µM
TGI (HL-60(TB) leukemia): > 100 µM
TGI (SNB-19 CNS): > 100 µM

COC(O)C12OC3CO[Si](C(C)C)(C(C)C)O[Si](C(C)C)(C(C)C)OC3C1Oc1nc(=O)ccn12 (stereo not drawn)
TGI (SK-MEL-28 melanoma): > 100 µM
TGI (HOP-92 NSCLC): 22 µM
TGI (HCC-2998 colon): 14.9 µM
TGI (SK-OV-3 ovarian): 31.6 µM
TGI (U251 CNS): > 48.3 µM
TGI (K-562 leukemia): 64.9 µM
TGI (SN12C renal): 27.8 µM
TGI (RPMI-8226 leukemia): 3.51 µM
TGI (786-0 renal): 31.1 µM
TGI (CAKI-1 renal): 33.7 µM
TGI (MALME-3M melanoma): 26.9 µM
TGI (SF-268 CNS): 26.4 µM
TGI (UO-31 renal): 29.3 µM
TGI (SK-MEL-5 melanoma): 21.1 µM
TGI (KM12 colon): 19 µM
TGI (SK-MEL-2 melanoma): 25.1 µM
TGI (OVCAR-4 ovarian): 28 µM
TGI (RXF 393 renal): 24.6 µM
TGI (IGROV1 ovarian): 25.6 µM
TGI (LOX IMVI melanoma): 27.9 µM
TGI (MDA-N): 26.7 µM
TGI (EKVX NSCLC): 28.7 µM
TGI (OVCAR-3 ovarian): 23.5 µM
TGI (BT-549 breast): 29.3 µM
TGI (MDA-MB-231 breast): 34 µM
TGI (OVCAR-5 ovarian): 29.1 µM
TGI (NCI-H460 lung): 23.4 µM
TGI (SR leukemia): 6.98 µM
TGI (PC-3 prostate): 17 µM
TGI (A549 NSCLC): 26.1 µM
TGI (NCI/ADR-RES ovarian): 50.6 µM
TGI (HOP-62 NSCLC): 26.9 µM
TGI (NCI-H226 lung): 33.9 µM
TGI (HCT-15 colon): 30.9 µM
TGI (NCI-H522 lung): 18.3 µM
TGI (MDA-MB-435): 26.7 µM
TGI (COLO 205 colon): 27.3 µM
TGI (NCI-H23 lung): 28.4 µM
TGI (SW-620 colon): > 52.7 µM
TGI (SF-295 CNS): 24.8 µM
TGI (MCF7 breast): 24.8 µM
TGI (TK-10 renal): 28.7 µM
TGI (M14 melanoma): 25.3 µM
TGI (MOLT-4 leukemia): 5.78 µM
TGI (UACC-62 melanoma): 23.4 µM
TGI (DU-145 prostate): 30.6 µM
TGI (UACC-257 melanoma): 24.3 µM
TGI (HS 578T breast): 19.5 µM
TGI (CCRF-CEM leukemia): 18.5 µM
TGI (OVCAR-8 ovarian): 24.6 µM
TGI (HCT-116 colon): 21.8 µM
TGI (ACHN renal): 27.5 µM
TGI (SNB-75 CNS): 41.3 µM
TGI (HT29 colon): 20.5 µM
TGI (T-47D breast): 24.1 µM
TGI (A498 renal): 32.9 µM
TGI (SF-539 CNS): 29.3 µM
TGI (HL-60(TB) leukemia): 13.2 µM
TGI (SNB-19 CNS): 28.9 µM
